Among the targets are 5HT7A (Homo sapiens, UniProt P34969); D2 (Homo sapiens, UniProt P14416); SERT (Homo sapiens, UniProt P31645); 5HT5A (Homo sapiens, UniProt P47898); NOP (Homo sapiens, UniProt P41146); DAT (Homo sapiens, UniProt Q01959); 5HT2B (Homo sapiens, UniProt P41595); H1 (Homo sapiens, UniProt P35367); 5HT1D (Homo sapiens, UniProt P28221); D1 (Homo sapiens, UniProt P21728); H4 (Homo sapiens, UniProt Q9H3N8); D3 (Homo sapiens, UniProt P35462); 5HT6 (Homo sapiens, UniProt P50406); 5HT1E (Homo sapiens, UniProt P28566); D5 (Homo sapiens, UniProt P21918); 5HT1B (Homo sapiens, UniProt P28222); 5HT2A (Homo sapiens, UniProt P28223).

Assay in all cases: biochemical
A further assay deals with T1, 5HT1A (Homo sapiens, UniProt P08908).
T1 sequence (P08908 1-422): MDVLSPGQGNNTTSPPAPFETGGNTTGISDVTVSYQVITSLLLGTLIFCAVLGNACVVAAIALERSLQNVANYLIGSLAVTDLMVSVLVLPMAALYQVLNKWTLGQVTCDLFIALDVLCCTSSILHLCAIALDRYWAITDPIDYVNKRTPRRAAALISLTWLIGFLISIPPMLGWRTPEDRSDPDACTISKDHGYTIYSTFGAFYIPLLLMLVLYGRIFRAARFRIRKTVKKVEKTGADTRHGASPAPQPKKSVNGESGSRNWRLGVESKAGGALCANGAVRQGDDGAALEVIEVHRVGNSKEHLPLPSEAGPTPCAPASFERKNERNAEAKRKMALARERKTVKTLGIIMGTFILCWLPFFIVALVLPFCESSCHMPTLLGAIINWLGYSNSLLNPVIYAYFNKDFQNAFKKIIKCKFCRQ

The next assay has as its target T2, 5HT2C (Homo sapiens, UniProt P28335).
T2 sequence (P28335 1-458): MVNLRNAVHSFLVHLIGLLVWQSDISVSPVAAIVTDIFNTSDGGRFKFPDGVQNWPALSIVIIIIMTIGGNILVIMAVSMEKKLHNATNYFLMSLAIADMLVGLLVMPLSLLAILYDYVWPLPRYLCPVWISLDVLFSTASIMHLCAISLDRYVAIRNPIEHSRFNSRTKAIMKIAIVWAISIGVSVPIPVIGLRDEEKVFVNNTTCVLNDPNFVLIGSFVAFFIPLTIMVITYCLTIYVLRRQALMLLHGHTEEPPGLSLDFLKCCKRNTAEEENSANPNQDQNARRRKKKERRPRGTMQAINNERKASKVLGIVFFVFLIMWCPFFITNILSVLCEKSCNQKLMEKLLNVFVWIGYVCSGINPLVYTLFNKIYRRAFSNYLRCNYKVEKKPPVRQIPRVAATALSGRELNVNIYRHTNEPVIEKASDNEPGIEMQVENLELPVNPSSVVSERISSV

The target in a further assay is T3, 5HT3 (Homo sapiens, UniProt P46098).
T3 sequence (P46098 1-478): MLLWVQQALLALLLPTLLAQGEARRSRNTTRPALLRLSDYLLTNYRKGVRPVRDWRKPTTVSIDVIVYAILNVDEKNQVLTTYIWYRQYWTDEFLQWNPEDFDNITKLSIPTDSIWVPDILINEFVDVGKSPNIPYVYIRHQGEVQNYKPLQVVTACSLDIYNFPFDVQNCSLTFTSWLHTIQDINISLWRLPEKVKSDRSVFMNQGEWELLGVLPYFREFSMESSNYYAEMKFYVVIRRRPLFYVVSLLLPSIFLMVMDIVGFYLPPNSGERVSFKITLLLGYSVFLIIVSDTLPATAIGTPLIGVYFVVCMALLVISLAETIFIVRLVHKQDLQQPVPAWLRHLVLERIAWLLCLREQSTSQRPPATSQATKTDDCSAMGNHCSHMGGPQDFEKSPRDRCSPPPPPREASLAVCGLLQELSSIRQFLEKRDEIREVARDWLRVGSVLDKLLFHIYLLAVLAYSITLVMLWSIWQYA

The next assay deals with T4, D4 (Homo sapiens, UniProt P21917).
T4 sequence (P21917 1-419): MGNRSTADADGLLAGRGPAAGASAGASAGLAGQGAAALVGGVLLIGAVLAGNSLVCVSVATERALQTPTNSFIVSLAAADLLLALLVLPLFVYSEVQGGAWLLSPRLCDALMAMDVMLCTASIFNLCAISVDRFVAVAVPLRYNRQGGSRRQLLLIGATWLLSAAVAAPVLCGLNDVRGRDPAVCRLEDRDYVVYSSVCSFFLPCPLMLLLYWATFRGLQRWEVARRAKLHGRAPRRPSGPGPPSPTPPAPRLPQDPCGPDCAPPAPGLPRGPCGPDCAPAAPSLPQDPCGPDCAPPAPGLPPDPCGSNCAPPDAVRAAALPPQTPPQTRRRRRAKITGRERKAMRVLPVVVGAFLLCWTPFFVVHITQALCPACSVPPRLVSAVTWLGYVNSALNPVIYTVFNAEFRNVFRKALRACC

Structures are written as SMILES.

Usually Ki stands for the equilibrium dissociation constant of an inhibitor or competing ligand from its target. A high value points to weaker binding.

Chain of D2 (P14416 whole entry): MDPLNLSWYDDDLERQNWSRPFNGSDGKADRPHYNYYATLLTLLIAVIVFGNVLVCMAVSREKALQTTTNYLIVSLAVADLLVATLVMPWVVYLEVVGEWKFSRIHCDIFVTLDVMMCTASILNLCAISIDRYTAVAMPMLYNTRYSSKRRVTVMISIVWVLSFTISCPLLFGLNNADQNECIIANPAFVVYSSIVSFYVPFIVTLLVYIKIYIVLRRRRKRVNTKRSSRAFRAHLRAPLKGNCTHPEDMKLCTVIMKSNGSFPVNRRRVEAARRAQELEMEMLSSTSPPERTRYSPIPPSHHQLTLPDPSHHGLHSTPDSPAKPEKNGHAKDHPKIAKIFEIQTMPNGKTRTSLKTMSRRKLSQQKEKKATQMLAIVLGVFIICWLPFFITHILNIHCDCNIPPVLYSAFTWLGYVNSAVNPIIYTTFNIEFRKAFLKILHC
Chain of DAT (Q01959 whole entry): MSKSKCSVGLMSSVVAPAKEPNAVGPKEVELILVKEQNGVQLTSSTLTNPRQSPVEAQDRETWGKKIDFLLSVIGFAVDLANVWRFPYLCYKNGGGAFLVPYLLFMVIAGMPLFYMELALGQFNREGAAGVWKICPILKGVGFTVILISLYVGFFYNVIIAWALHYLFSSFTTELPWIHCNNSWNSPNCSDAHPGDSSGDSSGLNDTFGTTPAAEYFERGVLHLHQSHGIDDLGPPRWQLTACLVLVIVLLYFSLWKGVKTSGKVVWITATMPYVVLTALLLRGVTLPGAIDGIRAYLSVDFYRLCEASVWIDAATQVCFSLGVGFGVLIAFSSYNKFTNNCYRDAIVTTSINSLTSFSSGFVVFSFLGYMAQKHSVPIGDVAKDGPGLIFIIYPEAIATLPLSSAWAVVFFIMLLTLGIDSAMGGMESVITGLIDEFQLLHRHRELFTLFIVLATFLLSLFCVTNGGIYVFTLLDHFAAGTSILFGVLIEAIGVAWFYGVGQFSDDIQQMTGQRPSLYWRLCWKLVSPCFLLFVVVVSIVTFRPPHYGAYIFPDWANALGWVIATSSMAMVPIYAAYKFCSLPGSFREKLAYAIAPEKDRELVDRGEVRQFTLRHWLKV
Chain of 5HT2A (P28223 whole entry): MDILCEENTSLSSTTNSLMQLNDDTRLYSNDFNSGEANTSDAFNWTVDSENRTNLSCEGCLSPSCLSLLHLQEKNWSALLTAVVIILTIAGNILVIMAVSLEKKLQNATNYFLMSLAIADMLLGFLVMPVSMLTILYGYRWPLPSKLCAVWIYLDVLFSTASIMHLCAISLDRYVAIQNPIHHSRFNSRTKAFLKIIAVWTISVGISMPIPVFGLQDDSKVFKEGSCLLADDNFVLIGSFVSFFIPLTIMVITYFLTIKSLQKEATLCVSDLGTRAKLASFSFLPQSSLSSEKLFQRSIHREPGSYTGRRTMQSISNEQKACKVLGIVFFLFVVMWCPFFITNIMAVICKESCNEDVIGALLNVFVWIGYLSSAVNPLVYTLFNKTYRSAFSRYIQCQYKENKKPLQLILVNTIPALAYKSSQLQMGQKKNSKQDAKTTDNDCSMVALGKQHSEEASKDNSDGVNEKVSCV
Chain of D5 (P21918 whole entry): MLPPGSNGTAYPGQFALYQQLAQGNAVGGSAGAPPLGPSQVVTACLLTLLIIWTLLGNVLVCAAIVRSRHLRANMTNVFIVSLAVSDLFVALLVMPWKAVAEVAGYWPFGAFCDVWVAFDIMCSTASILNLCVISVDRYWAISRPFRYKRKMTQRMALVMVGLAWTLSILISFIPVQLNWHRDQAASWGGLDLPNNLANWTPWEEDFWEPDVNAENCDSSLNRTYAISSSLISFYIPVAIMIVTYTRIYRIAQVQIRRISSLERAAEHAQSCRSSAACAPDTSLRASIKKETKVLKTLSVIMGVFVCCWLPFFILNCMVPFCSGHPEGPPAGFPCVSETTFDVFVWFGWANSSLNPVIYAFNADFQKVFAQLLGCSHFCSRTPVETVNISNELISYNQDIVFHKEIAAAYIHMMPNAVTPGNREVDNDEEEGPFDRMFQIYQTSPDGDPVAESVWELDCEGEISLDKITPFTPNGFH
Chain of H1 (P35367 whole entry): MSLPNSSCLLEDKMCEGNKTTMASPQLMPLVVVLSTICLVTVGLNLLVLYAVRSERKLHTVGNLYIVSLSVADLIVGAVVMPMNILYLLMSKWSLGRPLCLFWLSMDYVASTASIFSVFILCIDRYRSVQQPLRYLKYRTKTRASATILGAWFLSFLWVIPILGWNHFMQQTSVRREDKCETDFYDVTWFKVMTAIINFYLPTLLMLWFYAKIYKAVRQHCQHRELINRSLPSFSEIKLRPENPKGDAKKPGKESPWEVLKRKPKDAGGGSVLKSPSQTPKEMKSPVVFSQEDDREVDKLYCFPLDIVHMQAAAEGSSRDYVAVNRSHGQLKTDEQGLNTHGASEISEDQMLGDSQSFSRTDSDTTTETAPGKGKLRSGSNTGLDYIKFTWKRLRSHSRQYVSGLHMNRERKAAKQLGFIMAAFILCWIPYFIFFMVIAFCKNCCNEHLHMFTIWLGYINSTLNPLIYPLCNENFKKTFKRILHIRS
Chain of 5HT2B (P41595 whole entry): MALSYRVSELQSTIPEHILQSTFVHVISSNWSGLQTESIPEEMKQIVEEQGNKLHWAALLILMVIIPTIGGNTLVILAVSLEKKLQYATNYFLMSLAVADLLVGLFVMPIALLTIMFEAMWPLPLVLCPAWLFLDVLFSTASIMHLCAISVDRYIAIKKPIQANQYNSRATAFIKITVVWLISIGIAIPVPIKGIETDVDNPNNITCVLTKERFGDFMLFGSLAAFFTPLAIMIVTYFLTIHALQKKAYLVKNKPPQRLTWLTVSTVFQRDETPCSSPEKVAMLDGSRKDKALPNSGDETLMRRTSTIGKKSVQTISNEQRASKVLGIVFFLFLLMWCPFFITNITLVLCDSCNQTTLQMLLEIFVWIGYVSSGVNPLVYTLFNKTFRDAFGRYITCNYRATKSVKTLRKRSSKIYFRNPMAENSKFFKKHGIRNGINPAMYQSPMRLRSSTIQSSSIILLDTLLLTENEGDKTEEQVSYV
Chain of H4 (Q9H3N8 whole entry): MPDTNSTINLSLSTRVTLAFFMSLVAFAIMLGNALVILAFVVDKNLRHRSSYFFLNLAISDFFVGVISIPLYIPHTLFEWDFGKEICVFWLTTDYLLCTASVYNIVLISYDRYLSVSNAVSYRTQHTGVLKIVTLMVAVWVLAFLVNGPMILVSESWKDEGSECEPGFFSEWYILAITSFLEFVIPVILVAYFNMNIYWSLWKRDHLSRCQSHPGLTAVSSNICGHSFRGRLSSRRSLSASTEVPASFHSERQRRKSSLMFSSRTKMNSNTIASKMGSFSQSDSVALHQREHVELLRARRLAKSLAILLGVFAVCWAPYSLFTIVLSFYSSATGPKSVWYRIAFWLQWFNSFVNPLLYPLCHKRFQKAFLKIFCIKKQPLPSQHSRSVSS
Chain of 5HT7A (P34969 whole entry): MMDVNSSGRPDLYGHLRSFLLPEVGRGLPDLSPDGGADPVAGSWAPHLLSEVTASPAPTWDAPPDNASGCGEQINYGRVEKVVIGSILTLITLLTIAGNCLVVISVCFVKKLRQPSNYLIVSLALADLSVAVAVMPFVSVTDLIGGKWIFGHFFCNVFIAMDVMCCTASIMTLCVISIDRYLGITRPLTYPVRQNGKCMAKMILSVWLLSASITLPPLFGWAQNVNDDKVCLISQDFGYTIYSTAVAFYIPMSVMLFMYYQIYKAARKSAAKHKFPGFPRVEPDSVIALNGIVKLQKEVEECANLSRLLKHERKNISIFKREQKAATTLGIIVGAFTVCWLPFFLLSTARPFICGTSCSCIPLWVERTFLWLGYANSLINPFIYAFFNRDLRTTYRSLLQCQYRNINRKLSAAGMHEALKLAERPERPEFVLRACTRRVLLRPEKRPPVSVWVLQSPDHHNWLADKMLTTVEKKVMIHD
Chain of D1 (P21728 whole entry): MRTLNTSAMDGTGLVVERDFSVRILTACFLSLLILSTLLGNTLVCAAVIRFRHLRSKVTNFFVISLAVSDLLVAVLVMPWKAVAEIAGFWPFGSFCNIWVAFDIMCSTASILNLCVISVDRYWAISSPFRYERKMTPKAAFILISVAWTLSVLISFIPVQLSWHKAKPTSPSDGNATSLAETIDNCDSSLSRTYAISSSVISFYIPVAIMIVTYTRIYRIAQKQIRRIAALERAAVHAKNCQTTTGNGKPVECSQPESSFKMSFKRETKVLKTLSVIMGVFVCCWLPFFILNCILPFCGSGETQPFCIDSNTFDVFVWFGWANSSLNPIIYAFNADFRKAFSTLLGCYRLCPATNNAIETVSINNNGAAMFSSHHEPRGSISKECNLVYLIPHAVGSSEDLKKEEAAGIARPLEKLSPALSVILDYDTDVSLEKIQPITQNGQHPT
Chain of 5HT6 (P50406 whole entry): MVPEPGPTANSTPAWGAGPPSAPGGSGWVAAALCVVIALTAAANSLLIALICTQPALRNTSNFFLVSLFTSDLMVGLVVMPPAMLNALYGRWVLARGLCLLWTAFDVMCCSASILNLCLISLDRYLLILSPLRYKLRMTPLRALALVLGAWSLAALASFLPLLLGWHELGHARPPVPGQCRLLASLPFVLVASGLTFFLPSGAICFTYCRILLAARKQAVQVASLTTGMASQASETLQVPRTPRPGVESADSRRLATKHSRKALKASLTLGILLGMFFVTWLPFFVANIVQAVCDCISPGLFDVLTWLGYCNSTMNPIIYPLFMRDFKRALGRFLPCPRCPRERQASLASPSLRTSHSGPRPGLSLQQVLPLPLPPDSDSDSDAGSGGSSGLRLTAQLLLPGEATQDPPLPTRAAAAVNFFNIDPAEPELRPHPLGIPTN

Regarding `Cc1cc(-c2ccc(CNC3Cc4ccccc4C3)c(F)c2)cc(-c2ncn[nH]2)c1` [5A], the Ki is 707 nM on 5HT7A; over 10 µM on D2; 116 nM at SERT; 8.04 µM at 5HT5A; 560 nM at NOP; 303 nM at DAT. Besides, the Ki on 5HT2B is 948 nM; at 5HT1A it was over 10 µM; at H1, 6.18 µM; at 5HT2C it was over 10 µM; on 5HT1D, 1420 nM; on D1, 1270 nM. In addition, the Ki was over 10 µM at H4; over 10 µM at 5HT3; 181 nM on D3; over 10 µM on 5HT6; over 10 µM at 5HT1E; 5.5 µM on D4. Besides, the inhibitory constant (Ki) on D5 was over 10 µM; at 5HT1B, 3.48 µM; on 5HT2A it was 1020 nM.

The values above are taken from paper doi:10.1101/2024.10.12.618019v1 (biorxiv, 2024).
